Measurements: US8232269B2, “Amide compounds useful in therapy” (Pfizer Inc., priority 2008, dated 2012)

Target: T1, Progesterone Receptor (PR) (Homo sapiens, UniProt P06401)
T1 construct: endogenous in cells; host or cells: T47D human breast mammary carcinoma cells
T1 sequence (P06401 1-933): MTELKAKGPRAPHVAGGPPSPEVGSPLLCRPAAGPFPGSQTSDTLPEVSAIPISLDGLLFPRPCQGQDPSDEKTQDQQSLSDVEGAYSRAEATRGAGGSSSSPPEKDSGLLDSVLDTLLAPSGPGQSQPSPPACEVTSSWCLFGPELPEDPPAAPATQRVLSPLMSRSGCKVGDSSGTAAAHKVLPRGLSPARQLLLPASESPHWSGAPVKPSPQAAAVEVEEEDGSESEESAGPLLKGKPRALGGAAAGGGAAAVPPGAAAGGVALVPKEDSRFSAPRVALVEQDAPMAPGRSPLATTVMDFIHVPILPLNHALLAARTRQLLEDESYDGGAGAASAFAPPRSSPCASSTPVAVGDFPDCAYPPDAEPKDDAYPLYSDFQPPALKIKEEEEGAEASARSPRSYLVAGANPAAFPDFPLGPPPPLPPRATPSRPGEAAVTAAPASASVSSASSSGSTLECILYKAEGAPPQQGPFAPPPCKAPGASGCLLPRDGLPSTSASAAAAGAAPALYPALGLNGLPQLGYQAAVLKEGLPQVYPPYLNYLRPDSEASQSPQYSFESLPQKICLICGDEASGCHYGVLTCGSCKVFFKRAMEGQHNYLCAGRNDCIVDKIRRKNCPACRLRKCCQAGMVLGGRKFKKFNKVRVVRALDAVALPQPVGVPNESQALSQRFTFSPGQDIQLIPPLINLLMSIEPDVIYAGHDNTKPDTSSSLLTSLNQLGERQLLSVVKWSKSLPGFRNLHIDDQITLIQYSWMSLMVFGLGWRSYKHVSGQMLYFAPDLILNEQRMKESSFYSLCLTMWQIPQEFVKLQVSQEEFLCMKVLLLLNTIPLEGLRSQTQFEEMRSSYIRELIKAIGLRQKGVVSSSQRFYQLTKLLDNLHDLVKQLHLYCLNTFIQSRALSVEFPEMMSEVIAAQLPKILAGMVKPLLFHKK
Experiment: In vitro functional assay for progesterone receptor (PR) antagonists: inhibition of progesterone-induced alkaline phosphatase expression in T47D cells
Type: cell-based
Details: antagonist format, 5 nM progesterone, Ki calculated from IC50 with the Cheng-Prusoff equation
Method in brief: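 Antagonist format: T47D cells (8750/well, phenol red-free DMEM + 5% CS-FCS) given half-log compound dilutions plus 5 nM progesterone (final), incubated overnight (≥16 h) at 37 °C. Alkaline phosphatase read by CSPD chemiluminescence after freeze-thaw lysis; 0.1 μM RU-486 final defines minimum.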

Compound | Ki
CC(C)n1nc(-c2ccc(C#N)cc2)c(C2CC2)c1C(=O)NCC(C)(C)N [Example 29, N-(2-amino-2-methylpropyl)-3-(4-cyanophenyl)-4-cyclopropyl-1-isopropyl-1H-pyrazole-5-carboxamide] | 235 nM
CC(C)n1nc(-c2ccc(C#N)cc2)c(C2CC2)c1C(=O)NCc1cnn(C)c1 [Example 30, 3-(4-Cyanophenyl)-4-cyclopropyl-1-isopropyl-N-[(1-methyl-1H-pyrazol-4-yl)methyl]-1H-pyrazole-5-carboxamide] | 30.9 nM
CC(C)n1nc(-c2ccc(C#N)cc2)c(C2CC2)c1C(=O)NCC(C)(C)C [Example 34, 3-(4-Cyanophenyl)-4-cyclopropyl-N-(2,2-dimethylpropyl)-1-isopropyl-1H-pyrazole-5-carboxamide] | 18.9 nM
CCNC(=O)CNC(=O)c1c(C2CC2)c(-c2ccc(C#N)cc2)nn1C(C)C [Example 42, 3-(4-Cyanophenyl)-4-cyclopropyl-N-[2-(ethylamino)-2-oxoethyl]-1-isopropyl-1H-pyrazole-5-carboxamide] | 27.3 nM
Cc1cc(-c2nn(C(C)C)c(C(=O)NCC3CC3)c2C)ccc1C#N [Example 62, 3-(4-Cyano-3-methylphenyl)-N-(cyclopropylmethyl)-1-isopropyl-4-methyl-1H-pyrazole-5-carboxamide] | 3.09 nM
Cc1cc(-c2nn(C(C)C)c(C(=O)NC[C@H](C)O)c2C)ccc1C#N [Example 63, 3-(4-Cyano-3-methylphenyl)-N-[(2S)-2-hydroxypropyl]-1-isopropyl-4-methyl-1H-pyrazole-5-carboxamide] | 6.24 nM
Cc1cc(-c2nn(C(C)C)c(C(=O)NC[C@@H](C)O)c2C)ccc1C#N [Example 64, 3-(4-Cyano-3-methylphenyl)-N-[(2R)-2-hydroxypropyl]-1-isopropyl-4-methyl-1H-pyrazole-5-carboxamide] | 10.9 nM
CCNC(=O)c1c(C)c(-c2ccc(C#N)c(C)c2)nn1C(C)C [Example 65, 3-(4-Cyano-3-methylphenyl)-N-ethyl-1-isopropyl-4-methyl-1H-pyrazole-5-carboxamide] | 3.55 nM
Cc1cc(-c2nn(C(C)C)c(C(=O)NC(C)C)c2C)ccc1C#N [Example 66, 3-(4-Cyano-3-methylphenyl)-N,1-diisopropyl-4-methyl-1H-pyrazole-5-carboxamide] | 3.56 nM
Cc1cc(-c2nn(C(C)C)c(C(=O)NC3CC3)c2C)ccc1C#N [Example 67, 3-(4-Cyano-3-methylphenyl)-N-cyclopropyl-1-isopropyl-4-methyl-1H-pyrazole-5-carboxamide] | 4.4 nM
Cc1cc(-c2nn(C(C)C)c(C(=O)NCC(C)(C)O)c2C)ccc1C#N [Example 68, 3-(4-Cyano-3-methylphenyl)-N-(2-hydroxy-2-methylpropyl)-1-isopropyl-4-methyl-1H-pyrazole-5-carboxamide] | 6.38 nM
Cc1c(-c2ccc(C#N)cc2)nn(C2CCC2)c1C(=O)NCC1CC1 [Example 69, 3-(4-Cyanophenyl)-1-cyclobutyl-N-(cyclopropylmethyl)-4-methyl-1H-pyrazole-5-carboxamide] | 3.4 nM
CNC(=O)c1c(C)c(-c2ccc(C#N)cc2)nn1C1CCC1 [Example 70, 3-(4-Cyanophenyl)-1-cyclobutyl-N,4-dimethyl-1H-pyrazole-5-carboxamide] | 5.51 nM
Cc1c(-c2ccc(C#N)cc2)nn(C2CCC2)c1C(=O)NC1CC1 [Example 71, 3-(4-Cyanophenyl)-1-cyclobutyl-N-cyclopropyl-4-methyl-1H-pyrazole-5-carboxamide] | 8.25 nM

More lines, now with the values ahead:

Ki | Compound
171 nM | CC(C)n1nc(-c2ccc(C#N)cc2)c(C2CC2)c1C(=O)NCCN [Example 28, N-(2-Aminoethyl)-3-(4-cyanophenyl)-4-cyclopropyl-1-isopropyl-1H-pyrazole-5-carboxamide]
36.3 nM | CC(C)n1nc(-c2ccc(C#N)cc2)c(C2CC2)c1C(=O)N[C@@H]1CC[C@H](O)C1 [Example 31, 3-(4-Cyanophenyl)-4-cyclopropyl-N-[(1R,3S)-3-hydroxycyclopentyl]-1-isopropyl-1H-pyrazole-5-carboxamide]
34.6 nM | CC(C)n1nc(-c2ccc(C#N)cc2)c(C2CC2)c1C(=O)N[C@H]1C[C@@H](O)C1 [Example 32, 3-(4-Cyanophenyl)-4-cyclopropyl-N-(cis-3-hydroxycyclobutyl)-1-isopropyl-1H-pyrazole-5-carboxamide]
7.11 nM | CC[C@H](C)NC(=O)c1c(C2CC2)c(-c2ccc(C#N)cc2)nn1C(C)C [Example 33, 3-(4-Cyanophenyl)-4-cyclopropyl-1-isopropyl-N-[(1S)-1-methylpropyl]-1H-pyrazole-5-carboxamide]
11.2 nM | CC[C@@H](C)NC(=O)c1c(C2CC2)c(-c2ccc(C#N)cc2)nn1C(C)C [Example 35, 3-(4-Cyanophenyl)-4-cyclopropyl-1-isopropyl-N-[(1R)-1-methylpropyl]-1H-pyrazole-5-carboxamide]
26 nM | CC(C)n1nc(-c2ccc(C#N)cc2)c(C2CC2)c1C(=O)NC1CCOCC1 [Example 43]
> 2010 nM | CNC(=O)c1c(C2CC2)c(-c2ccc(C#N)cc2)nn1C(C)C [Example 46, 3-(4-Cyanophenyl)-4-cyclopropyl-1-isopropyl-N-methyl-1H-pyrazole-5-carboxamide]
5.27 nM | CC(C)n1nc(-c2ccc(C#N)cc2)c(C2CC2)c1C(=O)NCC(F)(F)F [Example 48, 3-(4-Cyanophenyl)-4-cyclopropyl-1-isopropyl-N-(2,2,2-trifluoroethyl)-1H-pyrazole-5-carboxamide]
4.94 nM | CC(C)n1nc(-c2ccc(C#N)cc2)c(C2CC2)c1C(=O)NCC1CC1 [Example 49, 3-(4-Cyanophenyl)-4-cyclopropyl-N-(cyclopropylmethyl)-1-isopropyl-1H-pyrazole-5-carboxamide]
3.59 nM | CC(C)n1nc(-c2ccc(C#N)cc2)c(C2CC2)c1C(=O)NC1CCC1 [Example 50, 3-(4-Cyanophenyl)-N-cyclobutyl-4-cyclopropyl-1-isopropyl-1H-pyrazole-5-carboxamide]
4.65 nM | CC(C)n1nc(-c2ccc(C#N)cc2)c(C2CC2)c1C(=O)N(C)CC1CC1 [Example 51, 3-(4-Cyanophenyl)-4-cyclopropyl-N-(cyclopropylmethyl)-1-isopropyl-N-methyl-1H-pyrazole-5-carboxamide]
5.7 nM | CC(C)n1nc(-c2ccc(C#N)cc2)c(C2CC2)c1C(=O)NC1CCOC1 (stereo not shown) [Example 52, 3-(4-Cyanophenyl)-4-cyclopropyl-1-isopropyl-N-(tetrahydrofuran-3-yl)-1H-pyrazole-5-carboxamide]
7.38 nM | CC(C)n1nc(-c2ccc(C#N)cc2)c(C2CC2)c1C(=O)NC[C@H]1CCCO1 [Example 53, 3-(4-Cyanophenyl)-4-cyclopropyl-1-isopropyl-N-[(2R)-tetrahydrofuran-2-ylmethyl]-1H-pyrazole-5-carboxamide]
8.45 nM | CC(C)n1nc(-c2ccc(C#N)cc2)c(C2CC2)c1C(=O)NCCC1CC1 [Example 54, 3-(4-Cyanophenyl)-4-cyclopropyl-N-(2-cyclopropylethyl)-1-isopropyl-1H-pyrazole-5-carboxamide]
13.8 nM | CC(C)n1nc(-c2ccc(C#N)cc2)c(C2CC2)c1C(=O)NC[C@@H]1CCCO1 [Example 55, 3-(4-Cyanophenyl)-4-cyclopropyl-1-isopropyl-N-[(2S)-tetrahydrofuran-2-ylmethyl]-1H-pyrazole-5-carboxamide]
82.6 nM | CC(C)n1nc(-c2ccc(C#N)cc2)c(C2CC2)c1C(=O)NC(C)(C)CO [Example 56, 3-(4-Cyanophenyl)-4-cyclopropyl-N-(2-hydroxy-1,1-dimethylethyl)-1-isopropyl-1H-pyrazole-5-carboxamide]
6.87 nM | CC(C)n1nc(-c2ccc(C#N)cc2)c(C2CC2)c1C(=O)NC1CC1 [Example 58, 3-(4-Cyanophenyl)-N,4-dicyclopropyl-1-isopropyl-1H-pyrazole-5-carboxamide]
7.84 nM | COCCNC(=O)c1c(C2CC2)c(-c2ccc(C#N)cc2)nn1C(C)C [Example 59, 3-(4-Cyanophenyl)-4-cyclopropyl-1-isopropyl-N-(2-methoxyethyl)-1H-pyrazole-5-carboxamide]
42.1 nM | CC(C)n1nc(-c2ccc(C#N)cc2)c(C2CC2)c1C(=O)NC(C)(C)C [Example 60, N-tert-Butyl-3-(4-cyanophenyl)-4-cyclopropyl-1-isopropyl-1H-pyrazole-5-carboxamide]
8.29 nM | CC(=O)CNC(=O)c1c(C2CC2)c(-c2ccc(C#N)cc2)nn1C(C)C [Example 61, 3-(4-Cyanophenyl)-4-cyclopropyl-1-isopropyl-N-(2-oxopropyl)-1H-pyrazole-5-carboxamide]
